Laboratory results taken from patent US8138153B2, “Potassium channel modulator peptide” (National Centre for Biological Sciences, priority 2004, dated 2012).
Entries after “also recorded” stand apart in the source; their conditions may differ.

System: K^+ currents (voltage dependent potassium channels) in DRG neurons
Assay type: cell-based, Wistar rats

FHGGSWYRFPWGY-NH2 [Mo1659]
Effect on sustained (non-inactivating) K^+ current component: predominantly affects the sustained K^+ current component; also recorded: specifically acts on the non-inactivating K^+ currents
